Tests used:
[1] = system: hyaluronidase Type IV-S, from bovine testes (Hyase); assay: Dische's assay (Method II) of HA degradation by Hyase with inhibitors; format: biochemical; conditions: for % HA degraded: 20 μL inhibitor stock incubated 2 h with 20 μL Hyase, then HA 200 μL; for % HA degraded / % HA intact (precipitated): room temperature 24 h; for % of inhibition of HA degradation: derived from Table 1; for % HA intact (precipitated): represents % of Hyase inhibition, 20 μL inhibitor, 20 μL Hyase, HA 200 μL
Description: Method II (Dische's assay; detection of uronic acid residues): Assays were performed by following the procedures described in Dische Z. [J. Biol. Chem., 1947, 167, p. 189-198] and Dische and Rothschild [Anal Biochem., 1967, 21(1), p. 125-30]. In these assays, molecules containing the uronic acid residues found in the precipitate formed upon CPC additions, are re-solubilized and products formed by -sulfuric acid hydrolysis of these fragments are detected by a spectrophotometric assay employing carbazole chromagen reagent. In addition, small residues degraded off the HA chains that have not precipitated with the addition of CPC, can be detected by the carbazole assay performed on the solution, so as to detect all of the uronic acid content.
Evaluation of HA degradation by this method was generally performed as follows:
20 μL of a NAC stock solution, and 20 μL of the stock solutions of the other inhibitors were used in the assay.
200 μL of the HA stock solution were placed in each tube, for achieving a 1 mg HA per tube.
Twenty (20) μL of hyase and 20 μL of NAC were combined and incubated for 2 hours. Then 200 μL of HA (1 mg) were added to each tube and the mixture was incubated at room temperature for 24 hours. Thereafter, the tubes were heated for 2 minutes in boiling water bath and 8 mL of doubled distilled water were added to the tubes as preparation for the Dische's assay.
As per Dische's Assay, 100 μL of 3N NaCl and 0.5 mL of 10% CPC (cetylpyridinium chloride) were thereafter added to each tube and the mixture was incubated at 37° C. until flocculation-turbidity (resulting from precipitation of HA+CPC) could be observed. The mixture was centrifuged for 10 minutes at 10,000 g at room temperature, and the supernatant was thereafter separated from the obtained pellet.
The pellet was dissolved in 1 ml of CaCl2, and the obtained solution was incubated at 37° C. until complete dissolution of the pellet is obtained. A 2:1 v/v ethanol/ether mixture (8 ml) was thereafter added, and the mixture was intensively stirred (by vortex) and kept at −20° C. overnight. The obtained pellet was collected following a centrifugation for 10 minutes at 10,000 g. Then, distilled water (1 mL) was added to solubilize the pellet, followed by addition of 0.2 ml Carbazole 1%. The mixture was stirred thoroughly, and concentrated sulfuric acid (6 mL) was thereafter added.
The samples were transferred into tight closed tubes, placed for 10 minutes in a boiling water bath, and was thereafter cooled in ice until it reached room temperature.
The pink-violet color developed by the chromogen was measured using a spectrophotometer at 527 nm.
Ditch assay, as described hereinabove (Method II) was performed while using the following Hyase inhibitors:
The experiment was run at room temperature (23° C.). Hyase and Inhibitors were incubated first for 2 hours prior to the addition of HA. Blank tubes included no substrate (HA) and Control tubes included no enzyme, no inhibitor and HA (200 μL). Tubes 5 and 6 contained HA and Hyase with no inhibitor. Standard Solutions with no enzyme and no inhibitor and HA 50 μL and 10 μL were also tested, for calibration. % HA cleaved denotes the weight percent of HA that was degraded. % HA residue denotes the weight percent of non-degraded HA, and represents the % of Hyase inhibition.

[2] = HA gelation consistency (Method III) with inhibitors, no Hyase; format: physicochemical; conditions: for Consistency: Table 8: HA 1% 2cc + 20 μL inhibitor stock
Description: Method III (Viscosity of HA): HA at low concentrations (e.g., 1%) in aqueous solution forms a viscous colloidal hydrogel solution, which yields semi-solid gel particles at room temperature and a solid gel at 4° C.
HA degradation was evaluated using Method III, as described hereinabove.
HA Gelation in the presence of Hyase Inhibitors, without Hyase was studied while using the following Stock solutions:
To each tube containing 2 mL of 1% HA one of the following inhibitors: SCG, Tranilast, and Glutathione (100 μL of each), and NAC (50 μL) was added. […] No Hyase was present.
Using the same protocols as above, HA degradation was tested following incubation of HA (2 ml of a 1% Stock solution) and a Hyase inhibitor (20 μL of a stock solution as described hereinabove), at 37° C., in the presence and absence of Hyase.

[3] = TMA malodor neutralization by myrac aldehyde, evaluated by smelling
Description: The experimental system for following the neutralization of an exemplary malodorous compound trimethylamine (TMA) by an exemplary malodor neutralizing agent aldehyde myrac aldehyde, was based on assaying the CHO functional group using the Park-Johnson method [Park, J. T. and Johnson, M. J., J. Biol. Chem., 1949, 181, p. 149]. TMA levels were analyzed using Siemens Multistix 10 SG reagent strips.
Determination of the concentration of myrac aldehyde needed to neutralize TMA malodor was evaluated by smelling 2 ml samples of an aqueous solution containing 2 mM TMA (4 micromole of TMA in 2 ml of water). […]

## O=C(O)c1cc(=O)c2c(OCC(O)COc3cccc4oc(C(=O)O)cc(=O)c34)cccc2o1 [Cromoglycate, sodium Cromoglycate]
[1]
  % HA degraded: 96.7%
  % of inhibition of HA degradation: 3.3%
  % HA intact (precipitated): 3.3%
[2]; at 4° C.
  Consistency: Solid (for a solid the results were in the range of 80-100 Pa S and higher)
[2]; at 37° C.
  Consistency: Semisolid (for a semi-solid in the range of 50-70 Pa S)

## N[C@@H](CCC(=O)N[C@@H](CS)C(=O)NCC(=O)O)C(=O)O [Glutathione, Reduced Glutathione]
[1]
  % HA degraded: 82%
  % of inhibition of HA degradation: 18%
  % HA intact (precipitated): 18%
[2]; 2 mL 1% HA + inhibitor stock (100 μL; NAC 50 μL), 37° C. 24 hours
  HA gel consistency: viscous liquid
[2]; at 4° C.
  Consistency: Solid (for a solid the results were in the range of 80-100 Pa S and higher)
[2]; at 37° C.
  Consistency: Viscous liquid (for a viscous liquid in the range of 1-10 Pa S)

## CC(C)=CCCC1=CCC(C=O)CC1 (stereo not shown) [myrac aldehyde, 4-(4-methylpent-3-enyl)cyclohex-3-ene-1-carbaldehyde]
[3]; 2 mM TMA in water
  concentration from which the scent of myrac aldehyde is perceived and masks the smell of TMA: ≥ 4%
  concentration of myrac aldehyde that can neutralize the smell of TMA: about 2%
[3]; Sample 1: 2 μl aldehyde in 2 ml TMA 2 mM solution, 0.1 percent aldehyde
  Perceived scent: Strong fishy
[3]; Sample 2: 10 μl aldehyde in 2 ml TMA 2 mM solution, 0.5 percent aldehyde
  Perceived scent: fishy
[3]; Sample 3: 20 μl aldehyde in 2 ml TMA 2 mM solution, 1 percent aldehyde
  Perceived scent: Faint fishy
[3]; Sample 4: 40 μl aldehyde in 2 ml TMA 2 mM solution, 2 percent aldehyde
  Perceived scent: No scent
[3]; Sample 5: 80 μl aldehyde in 2 ml TMA 2 mM solution, 4 percent aldehyde
  Perceived scent: Faint myrac
[3]; Sample 6: 100 μl aldehyde in 2 ml TMA 2 mM solution, 5 percent aldehyde
  Perceived scent: Myrac
[3]; Sample 7: 200 μl aldehyde in 2 ml TMA 2 mM solution, 10 percent aldehyde
  Perceived scent: Myrac
[3]; Sample 8: 300 μl aldehyde in 2 ml TMA 2 mM solution, 15 percent aldehyde
  Perceived scent: Strong Myrac
[3]; Sample 9: 400 μl aldehyde in 2 ml TMA 2 mM solution, 20 percent aldehyde
  Perceived scent: Strong myrac
